Measured values: patent US20110166066A1, “CATESTATIN (CST) AND ITS VARIANTS FOR TREATMENT OF CARDIOVASCULAR AND METABOLIC DISORDERS” (priority 2008, published 2011)
No end group written: not given here.

Key:
AKT Ser473 = assay: Immunoblot of phosphorylated Akt in WT-CST perfused hearts; design: species or system rat; conditions: 110 nM
Protocol: Cardiac signaling—Hearts were perfused with or without 110 nM WT-Cts as before. At the end of experiment hearts were snap frozen under liquid nitrogen and homogenized with 1 ml of ice cold 0.2 M sucrose, Tris maleate (pH 7.0) buffer supplemented with 2 mM EDTA, pH 8.0, 1 mM sodium orthovanadate, 10 mM sodium pyrophosphate, 1 mM phenylmethylsulfonyl fluoride, 10 μg/ml leupeptin, 10 μg/ml aprotinin and 0.1 mM 3-isobutyl-1-methylxanthine. SR membrane fractions were isolated from cytosolic proteins as described before (27). Protein content was determined by Bradford assay (BIO-RAD) and 100 μg of cytosolic protein was subjected to SDS-PAGE immunoblot analysis for phosphorylated-ERK, total ERK (P-ERK and T-ERK; Santa Cruz, Calif.). […]
Statistics—Data are expressed as the mean±SEM. Curve fitting was accomplished in the program Kaleidagraph (Synergy Software, Reading, Pa.). […] For analysis of phosphorylated proteins, levels were quantified using Bio-Rad QuantifyOne and volumes of phosphorylated proteins were divided by the levels of non-phosphorylated proteins to calculate fold activation. Stimulation of protein activity was expressed as fold increase over vehicle-treated control. The means and S.E.M. were calculated for each treatment. […]

[1] = test system: Wild-type and CgA-KO mice; assay: Heart rate variability (EKG) in sedated mice; format: in vivo
Protocol: Animals. Six Wild-type and seven CgA-KO mice were used in this study (see example 1 for the details).
Mice were sedated by an intraperitoneal injection of a 1 μl solution per gm body weight, containing Ketamine (100 mg/ml)+Xylazine (20 mg/ml) and Acepromazine (10 mg/ml). Mice were gently strapped onto the surgical table in a fixed supine position with silk tape. Body temperature was continuously monitored on an analog thermometer, model 44TA (YSI, Ohio) using a rectal probe, and maintained between 36.5 and 38.5° C. throughout the experiment using a controlled heating box. The analog output signal fed into the chart recorder (AD Instruments, Colorado) and suitably amplified. The adequacy of sedation was regularly verified by absence of vibrissae twitching and withdrawal reflex to a noxious toe-pinch and was supplemented intraperitoneally as needed. Animals breathed ambient air spontaneously throughout the experimental run. Investigational agent, a nicotinic cholinergic receptor antagonist (8), CST was dissolved in distilled water and injected intraperitoneally at a volume of 70 μl from a 1 mM working solution.
EKG electrodes were attached to all four limbs (incl. reference electrode) via 30G stainless steel hypodermic needles (Popper & Sons, New York) so as to record standard bipolar Einthoven derivation (lead I, II and III) EKG signals. The EKG signals were bandpass-filtered between 0.1 and 3 kHz with a notch filter set at 60 Hz, and sampled at 2 kHz. The voltage output fed into a data acquisition system (PowerLab-8, AD Instruments) for eventual off-line measurements and analysis by chart and scope (Labchart 6) software. Heart rate and rhythm were also monitored continuously on an oscilloscope (Tektronix 5113, Oregon) throughout the experiment.
EKG traces were edited using the Chart® software package. High frequency noise from the EKG was removed using a 45 Hz low-pass filter to enable detection of the R-waves, whenever appropriate. A threshold electrical potential value was set for each trace and the post-threshold maximum was taken as the R-wave. Each trace was visually inspected for any undetected R-waves and these were manually inserted, while incorrectly detected R-waves or non-normal beats such as extrasystoles were deleted. Time and frequency domain analysis of HRV was performed using fast Fourier-transformation with a Hanning window. Spectral power was calculated on 50% overlapped blocks on sequences of 1024 points (beats). Time-domain parameters recorded or calculated included: mean R-R interval (in ms) [i.e., NN interval, i.e., normal-to-normal intervals]; standard deviation of all normal R-R interval (SDNN, in ms), reflecting total autonomic variability; square root mean of squared differences between adjacent normal R-R intervals (RMSSD), an index for short-term variations in inter-beat intervals, primarily of parasympathetic nature; and percentage of normal consecutive inter-beat intervals differing by >7 ms (NN7%), reflecting cardiac parasympathetic tone, were calculated directly from the sequence of interval times. NN7 is a murine-adjusted value based on PNN50 determined for humans (32). The mean HR was calculated as the mean sequence of reciprocals of the interval times. For non-linear measurements on the return map of R-R intervals (Lorenz plot), the images acquired by the chart software were imported into Image J (National Institutes of Health, Bethesda) for evaluating point dispersion of S1 and S2 (see below). The width and length of the dispersion of data in Lorenz plots reflects the level of short- and long-term beat-to-beat variability, respectively. The different frequency domain measures of HRV were computed using cut-off frequencies for power in the very low frequency (VLF), low-frequency range (LF) and high-frequency range (HF) based on human studies multiplied by a factor of ten for HR adjustment (the approximate ratio between murine and human HR) (33). […]

[2] = test system: Langendorff perfused rat heart; assay: Isoproterenol stimulated Langendorff heart preparations; conditions: ISO 0.1 nM to 1 μM; WT-CST 33 and 110 nM, G364S-CST 200 nM, P370L-CST 165 nM
CgA null mice = conditions: pre-treatment; cited from earlier work

Sequence: SSMKLSFRARAYGFRGPGPQL [WT-CST, catestatin]
- Phosphorylation of AKT at Ser473 (AKT Ser473): inhibited
- Increased baseline heart rate ([1]; CgA KO mice, parenteral CST): rescued
- HRV VLF power ([1]; KO mice): 2.899±1.05 ln ms^2
- Time-domain parameters of HRV (SDNN, NN7%, RMSSD) ([1]; KO mice): reversed
- HRV VLF power ([1]; WT mice): 2.468±0.69 ln ms^2
- Short-term and long-term variability of HRV (Lorenz analysis) ([1]; mouse, in vivo): marked improvements
- Spectral peak positions ([1]; mouse, in vivo): not visibly altered
- ISO-induced stimulation of LVP (concentration-response) [2]: significantly inhibited
- High blood pressure in CgA null mice (CgA null mice): lowers the high blood pressure in CgA null mice to normal levels
